The source of these data is ChEMBL document CHEMBL1201862, “PubChem BioAssay data set” (2004).

Targets include Aurora kinase A (Homo sapiens, UniProt O14965); Aurora kinase B (Homo sapiens, UniProt Q96GD4); SRSF protein kinase 1 (Homo sapiens, UniProt Q96SB4).
Holding throughout (format): functional
Assay [1] has as its target Cell division cycle 7-related protein kinase (Homo sapiens, UniProt O00311).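 Note: value obtained from a kinome-wide kinase panel.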
Assay [2] addresses Interleukin-1 receptor-associated kinase 4 (Homo sapiens, UniProt Q9NWZ3).
Assay [3] deals with Dual specificity protein kinase CLK4 (Homo sapiens, UniProt Q9HAZ1).
Assay [4] addresses Homeodomain-interacting protein kinase 2 (Homo sapiens, UniProt Q9H2X6).
Assay [5] has as its target cAMP-dependent protein kinase catalytic subunit alpha (Homo sapiens, UniProt P17612).
Assay [6] concerns the target Serine/threonine-protein kinase pim-1 (Homo sapiens, UniProt P11309).
Assay [7] addresses Mitogen-activated protein kinase kinase kinase kinase 4 (Homo sapiens, UniProt O95819).
In assay [8] the target is T1, Glycogen synthase kinase-3 beta (Homo sapiens, UniProt P49841).
Assay [9] deals with Vascular endothelial growth factor receptor 2 (Homo sapiens, UniProt P35968).
Assay [10] addresses Serine/threonine-protein kinase MRCK alpha (Homo sapiens, UniProt Q5VT25).
Assay [11] concerns the target Cyclin-dependent kinase 5 (Homo sapiens, UniProt Q00535).
Assay [12] concerns the target Cyclin-dependent kinase 1 (Homo sapiens, UniProt P06493).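 Note: Kinome-wide panel profiling, with the target listed as panel member CDC2.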
Assay [13] concerns the target T2, Neuropeptides B/W receptor type 1 (Homo sapiens, UniProt P48145).
T2 sequence (P48145 whole entry): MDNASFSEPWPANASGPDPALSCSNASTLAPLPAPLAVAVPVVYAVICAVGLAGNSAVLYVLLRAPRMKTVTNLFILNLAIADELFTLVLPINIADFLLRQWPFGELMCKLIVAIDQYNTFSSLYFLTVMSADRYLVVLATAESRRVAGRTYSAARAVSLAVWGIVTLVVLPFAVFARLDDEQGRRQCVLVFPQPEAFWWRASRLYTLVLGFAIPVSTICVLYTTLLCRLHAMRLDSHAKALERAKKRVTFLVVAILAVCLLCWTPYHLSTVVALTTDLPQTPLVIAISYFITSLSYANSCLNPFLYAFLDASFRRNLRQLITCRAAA
The assay can be described thus: human NPBW1 receptor blockade, IC50 – cell-based, fluorescence, dose response, set 6, late-stage follow-up (AID 588583).

In assay [14] the target is Melanin-concentrating hormone receptor 1 (Homo sapiens, UniProt Q99705). The assay can be described thus: Late-stage fluorescence-based counterscreen for antagonists of the G-protein coupled receptor 7 (GPR7): cell-based dose response assay to identify antagonists of the melanin-concentrating hormone receptor 1 (MCHR1) Set 6. In general terms: Counterscreens check selectivity or assay interference.

Assay [15] concerns the target ALK tyrosine kinase receptor (Homo sapiens, UniProt Q9UM73).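 Note: ALK tested as one member of a kinase panel screen.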
The target in assay [16] is DNA dC->dU-editing enzyme APOBEC-3A (Homo sapiens, UniProt P31941). The assay can be described thus: A3A deaminase inhibition for selectivity – biochemical, dose response (AID 504722).
The target of assay [17] is Cyclin-dependent kinase 5/CDK5 activator 1 (Homo sapiens, UniProt Q00535). The assay can be described thus: inhibitors of human CDK5 activity – biochemical, microfluidic mobility shift, dry powder, set 2, selectivity assay for GSK3beta inhibitor project, dose response (AID 623979).
Assay [18] concerns the target DNA dC->dU-editing enzyme APOBEC-3G (Homo sapiens, UniProt Q9HC16). The experiment in a line: Dose Response confirmation of small molecule APOBEC3G DNA Deaminase Inhibitors via a fluorescence-based single-stranded DNA deaminase assay. [Related pubchem assays (depositor defined):AID493012, AID493028].
For assay [19], the target named is T1, Glycogen synthase kinase-3 beta. The assay can be described thus: inhibition of human GSK3B activity – biochemical, microfluidics, dry powder samples, set 2, dose response (AID 623989).
For assay [20], the target named is Glycogen synthase kinase-3 alpha (Homo sapiens, UniProt P49840). The assay can be described thus: GSK3A enzyme blockers, homolog specificity check – biochemical, microfluidics, dry powder samples, set 2, selectivity assay for GSK3beta inhibitor project, dose response (AID 623978).

Molecules are shown by their SMILES. The source made the active and inactive calls.

Chain of Cell division cycle 7-related protein kinase (O00311 whole entry): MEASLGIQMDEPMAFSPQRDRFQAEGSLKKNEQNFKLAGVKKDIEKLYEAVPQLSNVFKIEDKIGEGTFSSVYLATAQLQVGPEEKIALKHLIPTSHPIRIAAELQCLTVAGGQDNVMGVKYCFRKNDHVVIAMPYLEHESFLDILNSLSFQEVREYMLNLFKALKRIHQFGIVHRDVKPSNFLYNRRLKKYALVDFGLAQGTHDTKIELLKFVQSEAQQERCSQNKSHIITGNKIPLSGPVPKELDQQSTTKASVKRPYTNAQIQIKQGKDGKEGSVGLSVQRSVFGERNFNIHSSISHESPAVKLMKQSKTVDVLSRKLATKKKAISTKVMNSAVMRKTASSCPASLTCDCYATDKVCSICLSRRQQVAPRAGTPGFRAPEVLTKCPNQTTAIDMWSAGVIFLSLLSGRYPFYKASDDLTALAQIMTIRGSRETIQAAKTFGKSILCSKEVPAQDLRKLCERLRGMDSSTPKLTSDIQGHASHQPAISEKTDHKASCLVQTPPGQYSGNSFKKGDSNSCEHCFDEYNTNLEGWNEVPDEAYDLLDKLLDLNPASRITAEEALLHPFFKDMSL
Chain of Interleukin-1 receptor-associated kinase 4 (Q9NWZ3 whole entry): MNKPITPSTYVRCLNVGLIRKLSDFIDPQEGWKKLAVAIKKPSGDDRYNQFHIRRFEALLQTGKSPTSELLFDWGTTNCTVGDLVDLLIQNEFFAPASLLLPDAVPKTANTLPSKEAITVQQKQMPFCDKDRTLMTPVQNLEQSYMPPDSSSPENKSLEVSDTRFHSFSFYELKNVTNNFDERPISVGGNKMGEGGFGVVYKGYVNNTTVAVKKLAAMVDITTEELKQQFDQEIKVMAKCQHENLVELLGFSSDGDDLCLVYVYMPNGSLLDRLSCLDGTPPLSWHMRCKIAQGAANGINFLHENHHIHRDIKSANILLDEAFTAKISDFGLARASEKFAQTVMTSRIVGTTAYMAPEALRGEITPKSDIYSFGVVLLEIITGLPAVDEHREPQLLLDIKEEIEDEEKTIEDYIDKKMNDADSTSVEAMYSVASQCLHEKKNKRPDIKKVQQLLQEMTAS
T1 sequence (P49841 whole entry): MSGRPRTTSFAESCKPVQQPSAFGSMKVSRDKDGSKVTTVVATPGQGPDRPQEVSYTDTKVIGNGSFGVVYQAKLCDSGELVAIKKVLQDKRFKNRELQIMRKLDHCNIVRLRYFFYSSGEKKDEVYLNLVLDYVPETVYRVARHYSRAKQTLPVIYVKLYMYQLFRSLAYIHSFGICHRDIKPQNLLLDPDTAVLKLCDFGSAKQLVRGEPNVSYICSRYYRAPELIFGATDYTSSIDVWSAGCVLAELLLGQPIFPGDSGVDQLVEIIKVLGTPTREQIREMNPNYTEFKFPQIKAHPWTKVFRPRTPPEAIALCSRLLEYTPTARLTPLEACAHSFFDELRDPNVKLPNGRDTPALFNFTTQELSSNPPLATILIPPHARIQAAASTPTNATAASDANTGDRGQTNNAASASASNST
Chain of Serine/threonine-protein kinase pim-1 (P11309 whole entry): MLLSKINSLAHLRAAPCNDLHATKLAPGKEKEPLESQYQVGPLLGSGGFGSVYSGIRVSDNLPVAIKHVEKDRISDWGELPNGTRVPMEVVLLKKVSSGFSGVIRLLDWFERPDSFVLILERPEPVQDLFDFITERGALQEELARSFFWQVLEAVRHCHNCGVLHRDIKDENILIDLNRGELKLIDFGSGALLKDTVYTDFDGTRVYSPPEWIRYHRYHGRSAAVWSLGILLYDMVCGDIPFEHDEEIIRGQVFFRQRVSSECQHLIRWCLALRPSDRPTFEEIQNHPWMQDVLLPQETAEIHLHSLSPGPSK
Chain of Glycogen synthase kinase-3 alpha (P49840 whole entry): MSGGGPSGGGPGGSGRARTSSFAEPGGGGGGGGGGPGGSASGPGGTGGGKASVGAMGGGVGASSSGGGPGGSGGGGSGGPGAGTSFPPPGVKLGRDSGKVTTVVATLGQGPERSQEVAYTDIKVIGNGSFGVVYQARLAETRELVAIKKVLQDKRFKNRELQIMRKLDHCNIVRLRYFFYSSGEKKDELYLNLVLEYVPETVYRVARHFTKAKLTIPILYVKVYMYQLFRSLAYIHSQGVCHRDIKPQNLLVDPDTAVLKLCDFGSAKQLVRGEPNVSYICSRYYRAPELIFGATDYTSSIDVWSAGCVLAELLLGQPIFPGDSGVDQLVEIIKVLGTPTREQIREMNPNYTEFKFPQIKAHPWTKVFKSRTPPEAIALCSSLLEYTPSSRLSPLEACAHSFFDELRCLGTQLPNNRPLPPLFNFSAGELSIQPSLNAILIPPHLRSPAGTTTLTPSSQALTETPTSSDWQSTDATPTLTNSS
Chain of Dual specificity protein kinase CLK4 (Q9HAZ1 whole entry): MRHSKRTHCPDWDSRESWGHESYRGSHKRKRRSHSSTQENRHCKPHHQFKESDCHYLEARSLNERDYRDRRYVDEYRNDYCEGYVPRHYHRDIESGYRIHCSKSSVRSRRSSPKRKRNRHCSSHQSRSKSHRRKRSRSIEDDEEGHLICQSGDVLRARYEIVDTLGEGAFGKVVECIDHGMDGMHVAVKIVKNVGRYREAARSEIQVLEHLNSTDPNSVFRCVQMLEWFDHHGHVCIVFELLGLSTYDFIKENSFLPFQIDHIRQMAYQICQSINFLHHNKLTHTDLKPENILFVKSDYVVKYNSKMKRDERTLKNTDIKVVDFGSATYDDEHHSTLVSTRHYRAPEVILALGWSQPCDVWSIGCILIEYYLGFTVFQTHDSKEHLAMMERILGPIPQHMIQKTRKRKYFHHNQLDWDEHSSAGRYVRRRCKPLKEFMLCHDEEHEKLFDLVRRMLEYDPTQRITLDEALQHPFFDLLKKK
Chain of ALK tyrosine kinase receptor (Q9UM73 whole entry): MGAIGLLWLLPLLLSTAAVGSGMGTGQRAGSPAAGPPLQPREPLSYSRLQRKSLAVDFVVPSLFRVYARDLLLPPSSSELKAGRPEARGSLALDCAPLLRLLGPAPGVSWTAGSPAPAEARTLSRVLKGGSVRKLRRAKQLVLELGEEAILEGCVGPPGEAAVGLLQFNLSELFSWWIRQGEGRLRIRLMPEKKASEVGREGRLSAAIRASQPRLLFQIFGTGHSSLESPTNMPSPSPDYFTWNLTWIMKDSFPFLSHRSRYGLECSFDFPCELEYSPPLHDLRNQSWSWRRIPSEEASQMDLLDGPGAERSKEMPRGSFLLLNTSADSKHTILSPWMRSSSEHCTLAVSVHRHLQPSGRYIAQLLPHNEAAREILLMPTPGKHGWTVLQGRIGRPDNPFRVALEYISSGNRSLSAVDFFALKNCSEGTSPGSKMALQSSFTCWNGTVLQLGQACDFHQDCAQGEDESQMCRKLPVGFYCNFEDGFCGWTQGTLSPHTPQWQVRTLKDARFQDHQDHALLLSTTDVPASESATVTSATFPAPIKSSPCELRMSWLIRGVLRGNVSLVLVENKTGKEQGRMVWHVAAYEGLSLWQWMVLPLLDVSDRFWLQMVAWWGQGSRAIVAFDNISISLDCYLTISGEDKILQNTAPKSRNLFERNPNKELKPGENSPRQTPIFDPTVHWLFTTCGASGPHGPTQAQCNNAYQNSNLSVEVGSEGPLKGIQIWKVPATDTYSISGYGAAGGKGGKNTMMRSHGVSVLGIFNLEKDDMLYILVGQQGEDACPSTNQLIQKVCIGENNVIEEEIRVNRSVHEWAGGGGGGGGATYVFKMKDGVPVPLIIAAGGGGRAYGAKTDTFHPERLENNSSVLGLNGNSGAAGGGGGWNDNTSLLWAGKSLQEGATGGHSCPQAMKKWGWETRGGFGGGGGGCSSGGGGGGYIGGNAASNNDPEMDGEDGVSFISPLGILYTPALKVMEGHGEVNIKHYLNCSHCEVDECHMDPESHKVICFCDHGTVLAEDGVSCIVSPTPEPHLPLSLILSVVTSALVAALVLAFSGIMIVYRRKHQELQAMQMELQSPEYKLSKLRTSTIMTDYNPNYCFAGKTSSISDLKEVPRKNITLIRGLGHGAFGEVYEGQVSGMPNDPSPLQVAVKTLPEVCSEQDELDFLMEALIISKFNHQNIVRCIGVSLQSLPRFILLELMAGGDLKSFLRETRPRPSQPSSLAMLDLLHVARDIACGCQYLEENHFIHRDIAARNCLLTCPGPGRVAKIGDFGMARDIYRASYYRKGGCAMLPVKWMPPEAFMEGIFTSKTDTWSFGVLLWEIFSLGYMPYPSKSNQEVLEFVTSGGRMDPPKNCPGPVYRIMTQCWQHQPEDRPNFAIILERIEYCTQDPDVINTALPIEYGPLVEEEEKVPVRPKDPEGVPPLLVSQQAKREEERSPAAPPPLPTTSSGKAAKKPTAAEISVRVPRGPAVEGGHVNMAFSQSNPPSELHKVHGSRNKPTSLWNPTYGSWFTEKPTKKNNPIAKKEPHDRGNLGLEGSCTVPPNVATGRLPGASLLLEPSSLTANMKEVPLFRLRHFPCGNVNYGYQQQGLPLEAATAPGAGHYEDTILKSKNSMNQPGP
Chain of SRSF protein kinase 1 (Q96SB4 whole entry): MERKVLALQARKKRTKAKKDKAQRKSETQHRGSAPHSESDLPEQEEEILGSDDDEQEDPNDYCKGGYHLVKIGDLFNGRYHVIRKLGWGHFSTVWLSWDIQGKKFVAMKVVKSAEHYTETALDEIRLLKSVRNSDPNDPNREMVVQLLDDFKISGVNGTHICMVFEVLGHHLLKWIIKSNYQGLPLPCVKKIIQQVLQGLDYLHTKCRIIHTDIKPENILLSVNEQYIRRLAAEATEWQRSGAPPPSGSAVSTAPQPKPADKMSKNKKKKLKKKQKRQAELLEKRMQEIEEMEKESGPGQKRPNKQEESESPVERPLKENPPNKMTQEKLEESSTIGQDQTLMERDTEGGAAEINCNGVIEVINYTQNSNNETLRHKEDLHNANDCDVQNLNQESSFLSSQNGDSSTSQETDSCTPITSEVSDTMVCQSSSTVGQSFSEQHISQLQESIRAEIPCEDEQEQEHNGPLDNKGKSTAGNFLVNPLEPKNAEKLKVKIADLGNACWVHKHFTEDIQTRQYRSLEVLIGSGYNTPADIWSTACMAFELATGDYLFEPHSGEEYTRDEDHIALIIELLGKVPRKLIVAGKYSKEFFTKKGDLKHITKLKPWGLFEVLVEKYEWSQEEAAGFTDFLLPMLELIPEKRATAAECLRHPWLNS

As to `CNCCOc1cncc(-c2ccc3[nH]nc(C)c3c2)c1`, the inhibitory constant (Ki) was 31.6 nM (active) in assay [1]; > 10000 nM (inactive) in [2]; 10 nM (active) in assay [3]; 2000 nM (active) in assay [4]; 794 nM (active) in [5]; 794 nM (active) in [6]. Also, the Ki in assay [7] was 79.4 nM (active); in assay [8] it was 2510 nM (active).
As for `CC1(C)CC(C=Cc2ccc(Cl)cc2)=Cc2c1sc1ncnc(N)c21`, the inhibition constant (Ki) is 126 nM (active) in assay [9], 100 nM (active) on Aurora kinase A and 200 nM (active) on Aurora kinase B.
On to `CN(c1ccccc1-c1ccc2c(c1)Nc1ccccc1NC2=O)S(C)(=O)=O`, for which the Ki on SRSF protein kinase 1 was 5010 nM (active); in [2] it was 2510 nM (active); in assay [10] it was 6310 nM (active); in assay [11], 5010 nM (active); in assay [12] it was 3980 nM (active).
Turning to `N#CC(c1cc(F)ccc1F)c1c(Cl)cnn(Cc2cccc3ccccc23)c1=O` (stereo not given), the 50% inhibitory concentration (IC50) in assay [13] and in [14] was 255 nM (active) throughout.
Take `CS(=O)(=O)c1ccccc1Nc1nc(Nc2ccccc2)ncc1Cl`: the Ki in [1] is > 3980 nM (inactive); in [15], 316 nM (active).
For `Cc1ccc(-c2nnc(S)n2/N=C/c2ccncc2)cc1`, the IC50 in assay [16] was > 100000 nM (inactive); in assay [18] it was 2480 nM (active). The AC50 in [17] was 19300 nM (active); in [19] it was 1480 nM (active); in assay [20], 7710 nM (active).

In general, Ki refers to the equilibrium dissociation constant of an inhibitor or competing ligand from its target. The term IC50 denotes the point on the concentration scale where inhibition reaches its midpoint. The AC50 is the concentration giving half of the maximal activity seen.
